Results from patent US20080269241A1, “BICYCLIC AMINOPROPYL TETRAHYDRO-PYRAZOLO-PYRIDINE MODULATORS OF CATHEPSIN S” (priority 2007, published 2008).

Target: T1, human cathepsin S (CatS) (Homo sapiens, UniProt P25774)
T1 construct: made in house; host or cells: baculovirus system (insect cells)
Experiment: Recombinant human cathepsin S (CatS) fluorogenic substrate inhibition assay
Type: biochemical
Conditions: not given
Protocol: Recombinant human cathepsin S (CatS) was expressed in the baculovirus system and purified in one step with a thiopropyl-sepharose column. […] The assay is run in 150 mM sodium acetate pH 5.0 containing 1.5 mM DTT and 150 mM NaCl. […] Measurements are taken every min for 20 min. The rate is calculated from the slope of the increase in fluorescence and the percent inhibition is calculated from this.

T1 sequence (P25774 115-331): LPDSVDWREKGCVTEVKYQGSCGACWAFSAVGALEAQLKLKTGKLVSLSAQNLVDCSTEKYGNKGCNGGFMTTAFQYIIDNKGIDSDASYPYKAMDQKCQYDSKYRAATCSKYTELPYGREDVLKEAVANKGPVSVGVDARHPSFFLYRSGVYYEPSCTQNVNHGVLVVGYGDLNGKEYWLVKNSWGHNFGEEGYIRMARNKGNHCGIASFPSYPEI

Compound	IC50 [µM]
CC(C)CC(=O)NCc1cc(-c2nn(CC(O)CN3CCC(c4ccccc4)CC3)c3c2CN(S(C)(=O)=O)CC3)ccc1C(F)(F)F (stereo not shown) [Example 288, N-(5-{1-[2-Hydroxy-3-(4-phenyl-piperidin-1-yl)-propyl]-5-methanesulfonyl-4,5,6,7-tetrahydro-1H-pyrazolo[4,3-c]pyridin-3-yl}-2-trifluoromethyl-benzyl)-3-methyl-butyramide]	0.01

Same assay, conditions: recombinant human CatS, 10 μM Z-Valine-Valine-Arginine-AMC, pH 5.0; average of results obtained; read-out: CatS IC50

Compound	IC50 [µM]
CC(C)=CC(=O)NCc1cc(-c2nn(CC(O)CN3CCC(c4cccc(O)c4)CC3)c3c2CN(S(C)(=O)=O)CC3)ccc1C(F)(F)F (stereo not shown) [Example 275, 3-Methyl-but-2-enoic acid 5-(1-{2-hydroxy-3-[4-(3-hydroxy-phenyl)-piperidin-1-yl]-propyl}-5-methanesulfonyl-4,5,6,7-tetrahydro-1H-pyrazolo[4,3-c]pyridin-3-yl)-2-trifluoromethyl-benzylamide]	0.01
CS(=O)(=O)N1CCc2c(c(-c3ccc(C(F)(F)F)c(CNC(=O)C4CC4)c3)nn2CC(O)CN2CCC(N3CCCC3=O)CC2)C1 (stereo not shown) [Example 276, Cyclopropanecarboxylic acid 5-(1-{2-hydroxy-3-[4-(2-oxo-pyrrolidin-1-yl)-piperidin-1-yl]-propyl}-5-methanesulfonyl-4,5,6,7-tetrahydro-1H-pyrazolo[4,3-c]pyridin-3-yl)-2-trifluoromethyl-benzylamide]	0.09
CC(C)CC(=O)NCc1cc(-c2nn(CC(O)CN3CCC(c4nnn[nH]4)CC3)c3c2CN(S(C)(=O)=O)CC3)ccc1C(F)(F)F (stereo not shown) [Example 277, N-[5-(1-{2-Hydroxy-3-[4-(1H-tetrazol-5-yl)-piperidin-1-yl]-propyl}-5-methanesulfonyl-4,5,6,7-tetrahydro-1H-pyrazolo[4,3-c]pyridin-3-yl)-2-trifluoromethyl-benzyl]-3-methyl-butyramide]	0.14
CC(C)CCNCc1cc(-c2nn(CC(O)CN3CCC(N4CCOCC4)CC3)c3c2CN(S(C)(=O)=O)CC3)ccc1C(F)(F)F (stereo not shown) [Example 282, 1-(5-Methanesulfonyl-3-{3-[(3-methyl-butylamino)-methyl]-4-trifluoromethyl-phenyl}-4,5,6,7-tetrahydro-pyrazolo[4,3-c]pyridin-1-yl)-3-(4-morpholin-4-yl-piperidin-1-yl)-propan-2-ol]	0.86
CC(C)CC(=O)NCc1cc(-c2nn(CC(O)CN3CCC(C(=O)N4CCCC4)CC3)c3c2CN(S(C)(=O)=O)CC3)ccc1C(F)(F)F (stereo not shown) [Example 284, N-[5-(1-{2-Hydroxy-3-[4-(pyrrolidine-1-carbonyl)-piperidin-1-yl]-propyl}-5-methanesulfonyl-4,5,6,7-tetrahydro-1H-pyrazolo[4,3-c]pyridin-3-yl)-2-trifluoromethyl-benzyl]-3-methyl-butyramide]	0.06
Cc1noc(C2CCCN(CC(O)Cn3nc(-c4ccc(C(F)(F)F)c(CNC(=O)CC(C)C)c4)c4c3CCN(S(C)(=O)=O)C4)C2)n1 (stereo not shown) [Example 285, N-[5-(1-{2-Hydroxy-3-[3-(3-methyl-[1,2,4]oxadiazol-5-yl)-piperidin-1-yl]-propyl}-5-methanesulfonyl-4,5,6,7-tetrahydro-1H-pyrazolo[4,3-c]pyridin-3-yl)-2-trifluoromethyl-benzyl]-3-methyl-butyramide]	0.39
Cc1noc(C2CCN(CC(O)Cn3nc(-c4ccc(C(F)(F)F)c(CNC(=O)CC(C)C)c4)c4c3CCN(S(C)(=O)=O)C4)CC2)n1 (stereo not shown) [Example 286, N-[5-(1-{2-Hydroxy-3-[4-(3-methyl-[1,2,4]oxadiazol-5-yl)-piperidin-1-yl]-propyl}-5-methanesulfonyl-4,5,6,7-tetrahydro-1H-pyrazolo[4,3-c]pyridin-3-yl)-2-trifluoromethyl-benzyl]-3-methyl-butyramide]	0.03
CC(C)CC(=O)NCc1cc(-c2nn(CC(O)CN3CCC(O)(c4ccc(Br)cc4)CC3)c3c2CN(S(C)(=O)=O)CC3)ccc1C(F)(F)F (stereo not shown) [Example 287, N-[5-(1-{3-[4-(4-Bromo-phenyl)-4-hydroxy-piperidin-1-yl]-2-hydroxy-propyl}-5-methanesulfonyl-4,5,6,7-tetrahydro-1H-pyrazolo[4,3-c]pyridin-3-yl)-2-trifluoromethyl-benzyl]-3-methyl-butyramide]	0.06
CS(=O)(=O)N1CCc2c(c(-c3ccc(C(F)(F)F)c(CNCc4ccc(F)cc4)c3)nn2CCCN2CCC(C3CCCCC3)CC2)C1 [Example 296, (5-{1-[3-(4-Cyclohexyl-piperidin-1-yl)-propyl]-5-methanesulfonyl-4,5,6,7-tetrahydro-1H-pyrazolo[4,3-c]pyridin-3-yl}-2-trifluoromethyl-benzyl)-(4-fluoro-benzyl)-amine]	0.02
